Measurements published in ChEMBL document CHEMBL1201862, “PubChem BioAssay data set” (2004).
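These data come from cells grown in 96-well plates and exposed to compound for 48 hours at five concentrations. GI50 is the concentration that inhibits growth by half.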 The source made the active and inactive calls. Rule as the data show it: active = GI50 up to about 1.1 µM and inactive = higher.

Columns and labels:
Assay in all cases: NCI-60 cell line screen, 48 h
NCI-H226 = system: NCI-H226
T47D = system: T47D
HCC 2998 = system: HCC 2998
SK-MEL-5 = system: SK-MEL-5
OVCAR-3 = system: OVCAR-3
SF-295 = system: SF-295
NCI-H23 = system: NCI-H23
HT-29 = system: HT-29
K562 = system: K562
HL-60 = system: HL-60
MOLT-4 = system: MOLT-4
NCI-H522 = system: NCI-H522
HCT-116 = system: HCT-116
NCI-H460 = system: NCI-H460
HOP-62 = system: HOP-62
MDA-MB-231 = system: MDA-MB-231
BT-549 = system: BT-549
TK-10 = system: TK-10
OVCAR-8 = system: OVCAR-8

Compound | GI50 (NCI-H226) | GI50 (T47D) | GI50 (HCC 2998) | GI50 (SK-MEL-5) | GI50 (OVCAR-3) | GI50 (SF-295) | GI50 (NCI-H23) | GI50 (HT-29) | GI50 (K562) | GI50 (HL-60) | GI50 (MOLT-4) | GI50 (NCI-H522) | GI50 (HCT-116) | GI50 (NCI-H460) | GI50 (HOP-62) | GI50 (MDA-MB-231) | GI50 (BT-549) | GI50 (TK-10) | GI50 (OVCAR-8)
COc1cccc(CCn2c(N)c(-c3ccccc3)c3ccc([N+](=O)[O-])cc3c2=O)c1 | 3.05 µM (inactive) | 2.05 µM (inactive) | 11.1 µM (inactive) | 5.93 µM (inactive) | 2.58 µM (inactive) | 3.78 µM (inactive) | 3.16 µM (inactive) | 10.6 µM (inactive) | 1.02 µM (active) | 5.47 µM (inactive) | 6.7 µM (inactive) | 2.93 µM (inactive) | 3.3 µM (inactive) | 13.6 µM (inactive) | 6.56 µM (inactive) | 8.45 µM (inactive) | 1.61 µM (inactive) | 2.07 µM (inactive) | 1.98 µM (inactive)
CC(C)(C)OC(=O)NC1CCCC1C(O)(C1=CCCC1)C1=CCCC1 (configuration not stated) | > 100 µM (inactive) | 25.6 µM (inactive) | > 100 µM (inactive) | > 100 µM (inactive) | > 100 µM (inactive) |  | > 100 µM (inactive) | 76.2 µM (inactive) |  | > 100 µM (inactive) | > 100 µM (inactive) |  | > 100 µM (inactive) | > 100 µM (inactive) | > 100 µM (inactive) | 43.2 µM (inactive) | > 100 µM (inactive) |  | > 100 µM (inactive)
CC(=O)N(O)[C@@H]1CC[C@H](n2cnc3c(N)ncnc32)C1 | > 100 µM (inactive) | > 100 µM (inactive) | > 100 µM (inactive) | > 100 µM (inactive) | > 100 µM (inactive) | > 100 µM (inactive) | > 100 µM (inactive) |  | > 100 µM (inactive) |  | > 100 µM (inactive) | > 100 µM (inactive) | > 100 µM (inactive) | > 100 µM (inactive) | > 100 µM (inactive) | > 100 µM (inactive) | > 100 µM (inactive) | > 100 µM (inactive) | > 100 µM (inactive)
c1ccc(C2=Nn3c(CCCCCCCCc4nnc5n4N=C(c4ccccc4)CS5)nnc3SC2)cc1 | 72.1 µM (inactive) | > 92.9 µM (inactive) | > 100 µM (inactive) | > 100 µM (inactive) | > 100 µM (inactive) | 20.1 µM (inactive) | > 74.6 µM (inactive) | 19.6 µM (inactive) | 33.3 µM (inactive) |  | 32.4 µM (inactive) | 40.2 µM (inactive) | > 66.1 µM (inactive) | > 100 µM (inactive) | 17.4 µM (inactive) | 22.9 µM (inactive) | > 57.7 µM (inactive) | 29.2 µM (inactive) | > 46.5 µM (inactive)
COC(=O)CSC1CC(=O)c2c(Cl)sc(Cl)c21 (configuration not stated) |  | > 100 µM (inactive) | > 100 µM (inactive) | > 100 µM (inactive) |  | > 100 µM (inactive) | > 100 µM (inactive) | > 100 µM (inactive) | > 100 µM (inactive) |  | > 100 µM (inactive) | > 100 µM (inactive) | > 100 µM (inactive) | > 100 µM (inactive) | > 100 µM (inactive) | > 100 µM (inactive) | > 100 µM (inactive) | > 100 µM (inactive) | > 100 µM (inactive)
CN(C)c1ncnc2c1ncn2CCn1cnc2c(N(C)C)ncnc21 |  | > 100 µM (inactive) | > 100 µM (inactive) | > 100 µM (inactive) | > 100 µM (inactive) | > 100 µM (inactive) | > 100 µM (inactive) | > 100 µM (inactive) |  | > 100 µM (inactive) | < 0.01 µM (active) | > 100 µM (inactive) | > 100 µM (inactive) | > 100 µM (inactive) | > 100 µM (inactive) | > 100 µM (inactive) | > 100 µM (inactive) | > 100 µM (inactive) | > 100 µM (inactive)
C=CCCC(=O)CC(O)(C(F)(F)F)C(F)(F)F | > 100 µM (inactive) | > 100 µM (inactive) | > 100 µM (inactive) | > 100 µM (inactive) | > 100 µM (inactive) | > 100 µM (inactive) | > 100 µM (inactive) | > 100 µM (inactive) | > 100 µM (inactive) | > 100 µM (inactive) | > 100 µM (inactive) | > 100 µM (inactive) | > 100 µM (inactive) | > 100 µM (inactive) |  | > 100 µM (inactive) | > 100 µM (inactive) | > 100 µM (inactive) | > 100 µM (inactive)
C1CC[C@H]2SSC3CCCC[C@H]3SSC2C1 (some centres not stated) |  | > 100 µM (inactive) | > 100 µM (inactive) | > 100 µM (inactive) | > 100 µM (inactive) | > 100 µM (inactive) | > 100 µM (inactive) | > 100 µM (inactive) | > 100 µM (inactive) | > 100 µM (inactive) | > 100 µM (inactive) | > 100 µM (inactive) | > 100 µM (inactive) | > 100 µM (inactive) | > 100 µM (inactive) | > 100 µM (inactive) | > 100 µM (inactive) | > 100 µM (inactive) | > 100 µM (inactive)
CC(C)(C)CNCCO | > 100 µM (inactive) | > 100 µM (inactive) | > 100 µM (inactive) | > 100 µM (inactive) | > 100 µM (inactive) | > 100 µM (inactive) | > 100 µM (inactive) | > 100 µM (inactive) |  | > 100 µM (inactive) |  | > 100 µM (inactive) | > 100 µM (inactive) | > 100 µM (inactive) | > 100 µM (inactive) | > 100 µM (inactive) | > 100 µM (inactive) | > 100 µM (inactive) | > 100 µM (inactive)
C[C@@H]1OC(=O)C[C@H]2CC(=O)N(CCC3CN(C(=O)c4ccccc4)c4ccccc43)C[C@@H]21 (some centres not stated) |  | > 100 µM (inactive) | > 100 µM (inactive) | > 100 µM (inactive) | > 100 µM (inactive) | > 100 µM (inactive) | > 100 µM (inactive) | > 100 µM (inactive) | > 100 µM (inactive) |  | > 100 µM (inactive) | > 100 µM (inactive) | > 100 µM (inactive) | > 100 µM (inactive) | > 100 µM (inactive) | > 100 µM (inactive) | > 100 µM (inactive) | > 100 µM (inactive) | > 100 µM (inactive)
COc1ccccc1C1c2cc3c(cc2OC2(OC)COC(=O)C12)OCO3 (configuration not stated) | 34.8 µM (inactive) | 34.5 µM (inactive) | 14.9 µM (inactive) | 7.19 µM (inactive) | 9.57 µM (inactive) | 13.2 µM (inactive) | 29.2 µM (inactive) | 5.28 µM (inactive) | 5.22 µM (inactive) | 3.03 µM (inactive) | 5.33 µM (inactive) |  | 6.98 µM (inactive) | 15.3 µM (inactive) | 22.2 µM (inactive) | 18.2 µM (inactive) | 17.9 µM (inactive) | 39.4 µM (inactive) | 24.3 µM (inactive)
N#Cc1ccc(OCc2nc3cc(C(F)(F)F)ccc3nc2-c2ccccc2)cc1 |  | > 100 µM (inactive) | > 100 µM (inactive) | > 100 µM (inactive) | > 100 µM (inactive) | > 100 µM (inactive) | > 100 µM (inactive) | 7.93 µM (inactive) |  | 3.53 µM (inactive) | 62.1 µM (inactive) | 7.62 µM (inactive) | > 100 µM (inactive) | > 100 µM (inactive) | > 100 µM (inactive) | 51.1 µM (inactive) | > 100 µM (inactive) | > 100 µM (inactive) | > 100 µM (inactive)
Brc1ccc2c3c1[C@@H]1O[C@@H]1c1cccc(c1-3)[C@@H]1O[C@H]21 | 39.7 µM (inactive) | 15.4 µM (inactive) |  | 16.9 µM (inactive) | 19.9 µM (inactive) | 19.2 µM (inactive) | 16.3 µM (inactive) | 17.6 µM (inactive) | > 39.9 µM (inactive) | 19.6 µM (inactive) | > 53 µM (inactive) | 13.8 µM (inactive) | 13.8 µM (inactive) |  | 19.5 µM (inactive) | 27.4 µM (inactive) | 21.1 µM (inactive) | 41 µM (inactive) | 13.8 µM (inactive)
COc1cccc(-n2nnc3c(N)nc(N)nc32)c1 | > 100 µM (inactive) | > 100 µM (inactive) |  | > 100 µM (inactive) | > 100 µM (inactive) | > 100 µM (inactive) | 28.9 µM (inactive) | > 100 µM (inactive) | > 100 µM (inactive) | > 100 µM (inactive) | > 100 µM (inactive) | > 100 µM (inactive) | > 100 µM (inactive) | 94.4 µM (inactive) | > 100 µM (inactive) | > 100 µM (inactive) | > 100 µM (inactive) | > 100 µM (inactive) | > 100 µM (inactive)
O=C(O)C1C2OC(C(Br)C2Br)C1C(=O)O (configuration not stated) | > 100 µM (inactive) | > 100 µM (inactive) |  | > 100 µM (inactive) | > 100 µM (inactive) | > 100 µM (inactive) | > 100 µM (inactive) | > 100 µM (inactive) | > 100 µM (inactive) | > 100 µM (inactive) | > 100 µM (inactive) | > 100 µM (inactive) | > 100 µM (inactive) | > 100 µM (inactive) | > 100 µM (inactive) | > 100 µM (inactive) | > 100 µM (inactive) | > 100 µM (inactive) | > 100 µM (inactive)
COc1cc2nc(Nc3cccc(Br)c3)nc(Nc3cccc(Br)c3)c2cc1OC |  | 17.1 µM (inactive) | 23.6 µM (inactive) | 17 µM (inactive) | 16.6 µM (inactive) | 17.7 µM (inactive) | 17.7 µM (inactive) | 18.7 µM (inactive) | 22.8 µM (inactive) |  | 20.4 µM (inactive) | 16.7 µM (inactive) | 17.6 µM (inactive) | 24.3 µM (inactive) | 18 µM (inactive) | 21.8 µM (inactive) | 17 µM (inactive) | 21.5 µM (inactive) | 16.6 µM (inactive)
